Source: ChEMBL document CHEMBL4507295 (2021)

Tests used:
[1] = target: T1, 5-hydroxytryptamine receptor 3A (Homo sapiens) (UniProt P46098); conditions: Compound concentration 10.0 uM
T1 sequence (whole entry): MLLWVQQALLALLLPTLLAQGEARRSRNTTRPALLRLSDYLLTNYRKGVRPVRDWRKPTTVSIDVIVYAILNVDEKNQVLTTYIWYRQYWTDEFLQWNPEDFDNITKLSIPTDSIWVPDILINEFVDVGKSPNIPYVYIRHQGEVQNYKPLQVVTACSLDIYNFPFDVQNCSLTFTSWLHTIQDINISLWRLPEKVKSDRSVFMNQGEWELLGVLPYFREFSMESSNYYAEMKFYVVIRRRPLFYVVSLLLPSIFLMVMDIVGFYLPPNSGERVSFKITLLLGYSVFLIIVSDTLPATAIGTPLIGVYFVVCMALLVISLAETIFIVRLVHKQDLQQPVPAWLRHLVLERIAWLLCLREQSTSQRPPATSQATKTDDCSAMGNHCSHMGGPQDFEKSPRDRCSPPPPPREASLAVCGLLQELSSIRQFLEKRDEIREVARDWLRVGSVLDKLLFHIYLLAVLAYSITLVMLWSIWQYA

[2] = target: Mitogen-activated protein kinase kinase kinase 1 (Homo sapiens) (UniProt Q13233); conditions: Compound concentration 1000.0 nM
[3] = target: Beta-3 adrenergic receptor (Homo sapiens) (UniProt P13945); conditions: Compound concentration 10.0 uM
[4] = target: Mitogen-activated protein kinase 9 (Homo sapiens) (UniProt P45984); conditions: Compound concentration 1000.0 nM
[5] = target: Serine/threonine-protein kinase MRCK gamma (Homo sapiens) (UniProt Q6DT37); conditions: Compound concentration 1000.0 nM
[6] = target: Mitogen-activated protein kinase 6 (Homo sapiens) (UniProt Q16659); conditions: Compound concentration 1000.0 nM
[7] = test system: ALK tyrosine kinase receptor (Homo sapiens), Q9UM73 [L1196M]; conditions: Compound concentration 1000.0 nM
[8] = target: Cyclin-dependent kinase 7 (Homo sapiens) (UniProt P50613); conditions: Compound concentration 1000.0 nM
[9] = target: Hepatocyte growth factor receptor (Homo sapiens) (UniProt P08581); conditions: Compound concentration 1000.0 nM
[10] = test system: Tyrosine-protein kinase ABL1 (Homo sapiens), P00519 [M351T]; conditions: Compound concentration 1000.0 nM
[11] = target: Mitogen-activated protein kinase kinase kinase 4 (Homo sapiens) (UniProt Q9Y6R4); conditions: Compound concentration 1000.0 nM
[12] = target: Mitogen-activated protein kinase kinase kinase 10 (Homo sapiens) (UniProt Q02779); conditions: Compound concentration 1000.0 nM
[13] = target: Serine/threonine-protein kinase Chk1 (Homo sapiens) (UniProt O14757); conditions: Compound concentration 1000.0 nM
[14] = target: Bone morphogenetic protein receptor type-2 (Homo sapiens) (UniProt Q13873); conditions: Compound concentration 1000.0 nM
[15] = target: Aurora kinase C (Homo sapiens) (UniProt Q9UQB9); conditions: Compound concentration 1000.0 nM
[16] = target: Inhibitor of nuclear factor kappa-B kinase subunit alpha (Homo sapiens) (UniProt O15111); conditions: Compound concentration 1000.0 nM
[17] = target: Cyclin-dependent kinase 18 (Homo sapiens) (UniProt Q07002); conditions: Compound concentration 1000.0 nM
[18] = target: 3-phosphoinositide-dependent protein kinase 1 (Homo sapiens) (UniProt O15530); conditions: Compound concentration 1000.0 nM
[19] = target: Ephrin type-A receptor 2 (Homo sapiens) (UniProt P29317); conditions: Compound concentration 1000.0 nM
[20] = target: Mitogen-activated protein kinase 1 (Homo sapiens) (UniProt P28482); conditions: Compound concentration 1000.0 nM
[21] = target: Peripheral plasma membrane protein CASK (Homo sapiens) (UniProt O14936); conditions: Compound concentration 1000.0 nM
[22] = target: Ribosomal protein S6 kinase alpha-1 (Homo sapiens) (UniProt Q15418); conditions: Compound concentration 1000.0 nM
[23] = target: Ephrin type-A receptor 6 (Homo sapiens) (UniProt Q9UF33); conditions: Compound concentration 1000.0 nM
[24] = target: Myosin light chain kinase (Homo sapiens) (UniProt Q32MK0); conditions: Compound concentration 1000.0 nM
[25] = target: Atypical kinase COQ8B, mitochondrial (Homo sapiens) (UniProt Q96D53); conditions: Compound concentration 1000.0 nM
[26] = target: Transient receptor potential cation channel subfamily M member 6 (Homo sapiens) (UniProt Q9BX84); conditions: Compound concentration 1000.0 nM
[27] = target: NUAK family SNF1-like kinase 1 (Homo sapiens) (UniProt O60285); conditions: Compound concentration 1000.0 nM
[28] = target: Proto-oncogene tyrosine-protein kinase Src (Homo sapiens) (UniProt P12931); conditions: Compound concentration 1000.0 nM
[29] = test system: Epidermal growth factor receptor (Homo sapiens), P00533 [L861Q]; conditions: Compound concentration 1000.0 nM
[30] = target: 5'-AMP-activated protein kinase catalytic subunit alpha-1 (Homo sapiens) (UniProt Q13131); conditions: Compound concentration 1000.0 nM
[31] = target: Cyclin-dependent kinase 2 homolog (Plasmodium falciparum (isolate 3D7)) (UniProt P61075); conditions: Compound concentration 1000.0 nM
[32] = target: Dual specificity protein kinase CLK2 (Homo sapiens) (UniProt P49760); conditions: Compound concentration 1000.0 nM
[33] = target: Serine/threonine-protein kinase 17B (Homo sapiens) (UniProt O94768); conditions: Compound concentration 1000.0 nM
[34] = target: Macrophage colony-stimulating factor 1 receptor (Homo sapiens) (UniProt P07333); conditions: Compound concentration 1000.0 nM
[35] = target: Homeodomain-interacting protein kinase 1 (Homo sapiens) (UniProt Q86Z02); conditions: Compound concentration 1000.0 nM
[36] = target: Myotonin-protein kinase (Homo sapiens) (UniProt Q09013); conditions: Compound concentration 1000.0 nM
[37] = target: Tyrosine-protein kinase JAK3 (Homo sapiens) (UniProt P52333); conditions: Compound concentration 1000.0 nM
[38] = test system: Hepatocyte growth factor receptor (Homo sapiens), P08581 [M1250T]; conditions: Compound concentration 1000.0 nM
[39] = test system: Leucine-rich repeat serine/threonine-protein kinase 2 (Homo sapiens), Q5S007 [G2019S]; conditions: Compound concentration 1000.0 nM

NUAK family SNF1-like kinase 1 (Homo sapiens), sequence (O60285 whole entry): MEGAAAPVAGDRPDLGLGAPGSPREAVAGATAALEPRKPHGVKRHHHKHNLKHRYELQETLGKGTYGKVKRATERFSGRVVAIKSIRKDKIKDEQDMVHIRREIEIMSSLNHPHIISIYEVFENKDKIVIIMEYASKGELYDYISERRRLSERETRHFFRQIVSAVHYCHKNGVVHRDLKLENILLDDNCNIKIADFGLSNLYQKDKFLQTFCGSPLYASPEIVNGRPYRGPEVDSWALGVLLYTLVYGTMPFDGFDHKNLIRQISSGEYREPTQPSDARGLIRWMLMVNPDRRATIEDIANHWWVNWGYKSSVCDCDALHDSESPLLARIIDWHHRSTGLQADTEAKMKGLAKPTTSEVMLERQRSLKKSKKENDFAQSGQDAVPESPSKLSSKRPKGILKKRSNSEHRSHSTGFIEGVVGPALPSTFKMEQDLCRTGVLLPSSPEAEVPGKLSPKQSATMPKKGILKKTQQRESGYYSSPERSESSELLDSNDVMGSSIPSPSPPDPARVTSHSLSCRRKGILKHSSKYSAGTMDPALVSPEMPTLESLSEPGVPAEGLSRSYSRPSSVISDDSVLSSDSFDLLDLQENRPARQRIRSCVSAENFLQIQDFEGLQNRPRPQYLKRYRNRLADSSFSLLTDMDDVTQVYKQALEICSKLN
Serine/threonine-protein kinase Chk1 (Homo sapiens), sequence (O14757 whole entry): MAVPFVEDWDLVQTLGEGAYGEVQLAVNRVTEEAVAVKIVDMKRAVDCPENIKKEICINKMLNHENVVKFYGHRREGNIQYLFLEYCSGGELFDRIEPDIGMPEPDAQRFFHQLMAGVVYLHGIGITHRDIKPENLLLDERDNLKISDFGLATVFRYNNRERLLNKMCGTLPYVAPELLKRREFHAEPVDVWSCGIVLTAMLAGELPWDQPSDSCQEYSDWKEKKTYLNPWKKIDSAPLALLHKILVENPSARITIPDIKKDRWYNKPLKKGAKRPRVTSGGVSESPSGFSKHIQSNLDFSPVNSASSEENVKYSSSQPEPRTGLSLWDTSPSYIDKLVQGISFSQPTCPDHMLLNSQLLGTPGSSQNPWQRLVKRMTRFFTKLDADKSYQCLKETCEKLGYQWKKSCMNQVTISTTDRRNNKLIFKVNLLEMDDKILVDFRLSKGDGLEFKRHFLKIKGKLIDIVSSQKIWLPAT
Mitogen-activated protein kinase 6 (Homo sapiens), sequence (Q16659 whole entry): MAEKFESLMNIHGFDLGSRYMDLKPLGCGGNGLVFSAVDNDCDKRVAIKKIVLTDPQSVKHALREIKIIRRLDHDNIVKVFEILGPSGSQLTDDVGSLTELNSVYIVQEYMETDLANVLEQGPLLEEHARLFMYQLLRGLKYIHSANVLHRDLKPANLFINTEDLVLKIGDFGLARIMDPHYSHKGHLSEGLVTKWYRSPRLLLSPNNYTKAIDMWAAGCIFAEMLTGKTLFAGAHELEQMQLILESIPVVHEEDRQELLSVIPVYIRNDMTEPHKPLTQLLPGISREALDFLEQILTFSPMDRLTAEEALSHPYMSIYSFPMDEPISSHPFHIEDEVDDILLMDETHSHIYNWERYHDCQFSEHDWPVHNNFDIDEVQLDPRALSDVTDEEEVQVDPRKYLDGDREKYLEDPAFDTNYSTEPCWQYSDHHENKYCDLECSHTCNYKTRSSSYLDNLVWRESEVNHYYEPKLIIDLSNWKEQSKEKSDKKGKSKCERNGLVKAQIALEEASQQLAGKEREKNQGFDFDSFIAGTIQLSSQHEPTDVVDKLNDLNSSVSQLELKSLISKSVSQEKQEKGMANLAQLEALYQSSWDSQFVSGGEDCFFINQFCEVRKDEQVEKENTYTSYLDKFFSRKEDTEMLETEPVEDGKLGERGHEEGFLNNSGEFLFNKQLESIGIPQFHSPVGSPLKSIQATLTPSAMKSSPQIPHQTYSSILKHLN
Transient receptor potential cation channel subfamily M member 6 (Homo sapiens), sequence (Q9BX84 whole entry): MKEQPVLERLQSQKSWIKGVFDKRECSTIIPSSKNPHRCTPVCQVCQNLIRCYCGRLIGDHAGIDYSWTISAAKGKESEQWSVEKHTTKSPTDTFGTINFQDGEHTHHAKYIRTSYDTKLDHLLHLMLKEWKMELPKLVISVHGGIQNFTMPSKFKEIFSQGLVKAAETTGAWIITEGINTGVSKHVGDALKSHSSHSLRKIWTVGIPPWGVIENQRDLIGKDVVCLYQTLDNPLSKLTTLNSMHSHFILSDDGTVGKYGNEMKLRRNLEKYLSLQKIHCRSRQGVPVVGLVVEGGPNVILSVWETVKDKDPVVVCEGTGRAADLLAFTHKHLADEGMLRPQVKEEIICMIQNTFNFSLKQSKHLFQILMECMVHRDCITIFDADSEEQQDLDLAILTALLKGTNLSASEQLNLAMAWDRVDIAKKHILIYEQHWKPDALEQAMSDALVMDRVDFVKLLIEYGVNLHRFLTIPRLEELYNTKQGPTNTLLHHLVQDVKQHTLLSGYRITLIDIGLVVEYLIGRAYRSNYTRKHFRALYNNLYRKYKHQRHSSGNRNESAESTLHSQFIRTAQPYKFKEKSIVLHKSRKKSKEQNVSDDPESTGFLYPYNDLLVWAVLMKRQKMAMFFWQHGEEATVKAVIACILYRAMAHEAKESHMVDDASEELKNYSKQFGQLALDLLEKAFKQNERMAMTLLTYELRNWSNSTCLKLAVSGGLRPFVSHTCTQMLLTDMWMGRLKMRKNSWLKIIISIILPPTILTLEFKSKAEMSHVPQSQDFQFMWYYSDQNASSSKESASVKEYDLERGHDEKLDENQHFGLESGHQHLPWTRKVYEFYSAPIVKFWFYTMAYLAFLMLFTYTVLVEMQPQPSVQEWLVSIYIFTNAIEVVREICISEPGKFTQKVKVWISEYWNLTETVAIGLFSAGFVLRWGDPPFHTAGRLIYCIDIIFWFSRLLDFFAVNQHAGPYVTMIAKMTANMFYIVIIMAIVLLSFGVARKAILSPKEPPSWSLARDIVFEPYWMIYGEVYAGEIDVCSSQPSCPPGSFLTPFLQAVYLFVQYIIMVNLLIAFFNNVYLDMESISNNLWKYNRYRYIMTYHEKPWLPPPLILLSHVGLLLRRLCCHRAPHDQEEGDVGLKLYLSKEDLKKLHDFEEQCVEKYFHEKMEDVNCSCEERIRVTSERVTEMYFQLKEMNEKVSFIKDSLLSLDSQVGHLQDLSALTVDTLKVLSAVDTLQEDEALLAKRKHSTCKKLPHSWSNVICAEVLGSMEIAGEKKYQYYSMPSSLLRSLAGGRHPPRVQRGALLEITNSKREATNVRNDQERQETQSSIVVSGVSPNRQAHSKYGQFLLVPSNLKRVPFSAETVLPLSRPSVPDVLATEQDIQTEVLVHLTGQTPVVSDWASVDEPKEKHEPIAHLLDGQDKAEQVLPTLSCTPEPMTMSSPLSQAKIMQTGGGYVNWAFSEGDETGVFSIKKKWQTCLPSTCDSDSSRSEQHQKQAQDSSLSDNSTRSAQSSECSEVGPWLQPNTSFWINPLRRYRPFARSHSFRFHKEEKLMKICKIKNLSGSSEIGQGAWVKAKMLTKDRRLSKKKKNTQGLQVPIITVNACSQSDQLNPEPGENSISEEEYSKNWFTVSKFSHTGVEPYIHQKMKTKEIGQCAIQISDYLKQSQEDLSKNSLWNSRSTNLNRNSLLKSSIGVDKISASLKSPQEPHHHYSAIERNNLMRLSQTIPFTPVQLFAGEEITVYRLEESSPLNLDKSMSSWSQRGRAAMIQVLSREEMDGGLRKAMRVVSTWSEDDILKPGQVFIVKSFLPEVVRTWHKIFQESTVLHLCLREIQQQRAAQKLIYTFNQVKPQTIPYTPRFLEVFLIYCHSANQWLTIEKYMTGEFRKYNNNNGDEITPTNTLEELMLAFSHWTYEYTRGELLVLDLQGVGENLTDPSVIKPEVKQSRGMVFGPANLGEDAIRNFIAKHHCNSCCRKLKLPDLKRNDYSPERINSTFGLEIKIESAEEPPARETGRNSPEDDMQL
Macrophage colony-stimulating factor 1 receptor (Homo sapiens), sequence (P07333 whole entry): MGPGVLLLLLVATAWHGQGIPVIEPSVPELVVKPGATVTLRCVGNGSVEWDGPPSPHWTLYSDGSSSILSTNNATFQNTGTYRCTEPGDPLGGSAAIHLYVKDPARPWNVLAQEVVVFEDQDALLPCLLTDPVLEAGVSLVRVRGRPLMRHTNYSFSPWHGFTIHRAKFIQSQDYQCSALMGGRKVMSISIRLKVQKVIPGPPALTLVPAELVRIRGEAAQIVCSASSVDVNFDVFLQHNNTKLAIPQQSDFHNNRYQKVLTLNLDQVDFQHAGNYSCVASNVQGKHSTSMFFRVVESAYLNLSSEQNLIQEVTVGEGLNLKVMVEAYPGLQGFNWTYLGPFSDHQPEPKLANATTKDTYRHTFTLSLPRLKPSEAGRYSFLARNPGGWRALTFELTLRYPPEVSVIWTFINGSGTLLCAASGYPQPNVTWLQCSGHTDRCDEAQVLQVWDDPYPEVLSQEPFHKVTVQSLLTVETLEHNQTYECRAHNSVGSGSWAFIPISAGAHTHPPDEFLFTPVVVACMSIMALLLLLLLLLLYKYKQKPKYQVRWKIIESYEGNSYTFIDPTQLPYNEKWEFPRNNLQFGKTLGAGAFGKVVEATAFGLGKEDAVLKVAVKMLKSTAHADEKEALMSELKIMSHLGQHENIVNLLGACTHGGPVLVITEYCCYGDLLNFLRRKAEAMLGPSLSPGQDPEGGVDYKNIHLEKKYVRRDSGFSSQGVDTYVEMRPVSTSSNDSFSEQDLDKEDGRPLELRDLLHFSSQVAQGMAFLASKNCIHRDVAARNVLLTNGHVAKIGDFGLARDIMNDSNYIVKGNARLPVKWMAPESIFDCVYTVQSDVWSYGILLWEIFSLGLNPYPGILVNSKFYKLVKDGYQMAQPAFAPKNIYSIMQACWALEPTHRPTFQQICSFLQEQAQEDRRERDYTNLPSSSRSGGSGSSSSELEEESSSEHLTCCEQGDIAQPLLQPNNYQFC

N#CC1(c2ccccn2)CCN(Cc2cc(C(=O)N3CCCC3)c(=O)n3ccccc23)CC1
inactive: inhibition [1] 6.59% | residual activity [2] 98% | inhibition [3] 17.4% | residual activity [4] 97% | residual activity [5] 88% | residual activity [6] 79% | residual activity [7] 100% | residual activity [8] 82% | residual activity [9] 95% | residual activity [10] 100% | residual activity [11] 90% | residual activity [12] 100% | residual activity [13] 90% | residual activity [14] 92% | residual activity [15] 88% | residual activity [16] 94% | residual activity [17] 100% | residual activity [18] 81% | residual activity [19] 86% | residual activity [20] 98% | residual activity [21] 100% | residual activity [22] 100% | residual activity [23] 100% | residual activity [24] 76% | residual activity [25] 100% | residual activity [26] 80% | residual activity [27] 86% | residual activity [28] 56% | residual activity [29] 79% | residual activity [30] 100% | residual activity [31] 100% | residual activity [32] 100% | residual activity [33] 93% | residual activity [34] 94% | residual activity [35] 77% | residual activity [36] 90% | residual activity [37] 100% | residual activity [38] 80% | residual activity [39] 100%

N#CC1(c2ccccn2)CCN(Cc2cc(C(=O)O)c(=O)n3ccccc23)CC1 [MSD-M1PAM]
inactive: inhibition [1] 12% | residual activity [2] 98% | inhibition [3] -5.05% | residual activity [4] 83% | residual activity [5] 100% | residual activity [6] 100% | residual activity [7] 100% | residual activity [8] 58% | residual activity [9] 84% | residual activity [10] 57% | residual activity [11] 100% | residual activity [12] 97% | residual activity [13] 100% | residual activity [14] 89% | residual activity [15] 94% | residual activity [16] 100% | residual activity [17] 100% | residual activity [18] 100% | residual activity [19] 83% | residual activity [20] 100% | residual activity [21] 100% | residual activity [22] 94% | residual activity [23] 86% | residual activity [24] 87% | residual activity [25] 90% | residual activity [26] 100% | residual activity [27] 98% | residual activity [28] 100% | residual activity [29] 100% | residual activity [30] 100% | residual activity [31] 68% | residual activity [32] 100% | residual activity [33] 100% | residual activity [34] 95% | residual activity [35] 100% | residual activity [36] 97% | residual activity [37] 95% | residual activity [38] 96% | residual activity [39] 100%
